8 molecules from patent US20250368620A1, “ARNT Degrading Compounds and Uses Thereof” (Celgene Corporation, priority 2024, published 2025) can be followed below.

Broadly, the DC50 is the concentration giving 50% degradation.

The structures appear in SMILES notation.

T1 sequence (P27540 whole entry): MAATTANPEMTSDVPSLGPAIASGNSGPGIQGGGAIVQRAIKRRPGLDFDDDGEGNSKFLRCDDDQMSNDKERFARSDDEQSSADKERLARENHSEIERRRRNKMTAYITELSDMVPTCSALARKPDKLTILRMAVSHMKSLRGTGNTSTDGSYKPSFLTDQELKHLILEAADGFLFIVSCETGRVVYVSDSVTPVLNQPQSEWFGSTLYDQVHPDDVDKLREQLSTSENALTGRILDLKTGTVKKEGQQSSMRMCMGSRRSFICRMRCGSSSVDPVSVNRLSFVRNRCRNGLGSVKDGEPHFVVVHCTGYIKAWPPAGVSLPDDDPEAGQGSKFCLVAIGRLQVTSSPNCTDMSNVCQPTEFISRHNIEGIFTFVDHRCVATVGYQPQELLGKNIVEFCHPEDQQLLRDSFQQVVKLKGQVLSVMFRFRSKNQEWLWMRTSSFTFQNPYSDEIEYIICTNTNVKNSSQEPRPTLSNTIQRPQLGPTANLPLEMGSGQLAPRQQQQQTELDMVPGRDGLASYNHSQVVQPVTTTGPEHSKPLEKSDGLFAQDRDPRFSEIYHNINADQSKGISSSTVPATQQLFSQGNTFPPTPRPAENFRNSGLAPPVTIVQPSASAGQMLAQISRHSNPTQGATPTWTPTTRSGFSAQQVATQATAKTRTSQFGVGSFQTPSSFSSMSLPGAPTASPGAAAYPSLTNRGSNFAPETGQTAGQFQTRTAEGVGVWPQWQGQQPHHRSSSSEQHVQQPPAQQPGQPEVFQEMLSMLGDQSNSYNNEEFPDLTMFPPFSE

The experiment addresses T1, ARNT (Homo sapiens, UniProt P27540).
T1 construct: an sgRNA targeting the C-terminus of the ARNT gene near the stop codon; endogenous in cells; host or cells: HEK293 ARNT-HiBiT knock-in, homozygous clone
In words: ARNT degradation in a HiBiT system (HEK293 ARNT-HiBiT Knock-In cell line). In kind it is cell-based. Conditions: half-maximal degradation concentration; HEK293 ARNT-HiBiT KI cells, 4h of treatment, luminescence. The method, then: Compounds of Formula (I) were tested for ARNT degradation in a HiBiT system. A HEK293 ARNT-HiBiT Knock-In cell line was generated using CRISPR/Cas9 technology. Briefly, HEK293 cells were electroporated with the Neon system with an sgRNA targeting the C-terminus of the ARNT gene near the stop codon ([…] (SEQ ID NO: 1); chr 1: 150,812,014-150,812,034) and the HiBiT donor DNA template (80 nucleotides homology arms upstream and downstream of the insert site, with a GSGS (SEQ ID NO: 2) linker). A homozygous clone was selected after Sanger sequencing, and genetic edition was further validated using Nano-Glo HiBiT blotting system. HEK293 ARNT-HiBiT KI cells were cultured in DMEM+10% FBS at 37° C. and 5% CO2. For the assay, cells were seeded at 10,000 cells/well in white 384 plates (Corning #3570) in 22.5 μl of culture medium without phenol red. Test compounds were spotted in 384-well plates by an acoustic dispenser (10 concentrations, semi-log dilution, in 100% DMSO). Before treatment, compounds were diluted 1:100 or 1:1,000 in culture medium without phenol red, and cells were treated with 2.5 μl of diluted compounds 18h after seeding (final top concentration: 3 or 0.3 μM). After 4h of treatment, plates were equilibrated at room temperature for 30 min, and 25 μl of NANO-GLO® HiBiT Lytic reagent were added per well. Luminescence was measured on a plate reader 15 min after incubation with the detection reagent. Data were analyzed using the Genedata Screener Software version 19, and normalization was performed using the DMSO treated wells as Neutral Control and medium only (without cells) wells as Scale Reference. For curve fitting, the smart fit condensing method with a 4-parameters Hill model was used and the half-maximal degradation concentration (DC50) was calculated.
`C[C@@H]1c2cc(C(=O)N3Cc4cc(C(F)(F)F)ccc4[C@@H]3C)ccc2C(=O)N1[C@H]1CCC(=O)NC1=O` [Compound 31, (S)-3-((R)-3-methyl-5-((S)-1-methyl-5-(trifluoromethyl)isoindoline-2-carbonyl)-1-oxoisoindolin-2-yl)piperidine-2,6-dione] returned a DC50 of 2.2 nM.
Then `C[C@@H]1c2cc(C(=O)N3Cc4c(ccc(C(F)(F)F)c4F)[C@@H]3C)ccc2C(=O)N1[C@H]1CCC(=O)NC1=O` [Compound 32, (S)-3-((R)-5-((S)-4-fluoro-1-methyl-5-(trifluoromethyl)isoindoline-2-carbonyl)-3-methyl-1-oxoisoindolin-2-yl)piperidine-2,6-dione], with 2.3 nM.
Then `COc1c(C(=O)N2Cc3c(ccc(Cl)c3F)[C@@H]2C)ccc2c1[C@@H](C)N([C@H]1CCC(=O)NC1=O)C2=O` [Compound 33, (S)-3-((R)-5-((S)-5-chloro-4-fluoro-1-methylisoindoline-2-carbonyl)-4-methoxy-3-methyl-1-oxoisoindolin-2-yl)piperidine-2,6-dione], with 3 nM; and `C[C@@H]1c2cc(C(=O)N3Cc4c(ccc(C(F)(F)F)c4Cl)[C@@H]3C)ccc2C(=O)N1[C@H]1CCC(=O)NC1=O` [Compound 34, (S)-3-((R)-5-((S)-4-chloro-1-methyl-5-(trifluoromethyl)isoindoline-2-carbonyl)-3-methyl-1-oxoisoindolin-2-yl)piperidine-2,6-dione], with 3.1 nM.
Then `COc1c(C(=O)N2Cc3cc(C(F)(F)F)ccc3[C@@H]2C)ccc2c1[C@@H](C)N([C@H]1CCC(=O)NC1=O)C2=O` [Compound 35, (S)-3-((R)-4-methoxy-3-methyl-5-((S)-1-methyl-5-(trifluoromethyl)isoindoline-2-carbonyl)-1-oxoisoindolin-2-yl)piperidine-2,6-dione], with 3.3 nM; and `C[C@H]1c2ccc(Br)c(F)c2CN1C(=O)c1ccc2c(c1)CN(C1CCC(=O)NC1=O)C2=O` (stereo partly drawn) [Compound 36, 3-(5-((S)-5-bromo-4-fluoro-1-methylisoindoline-2-carbonyl)-1-oxoisoindolin-2-yl)piperidine-2,6-dione], with 3.4 nM; and `C[C@@H]1c2cc(C(=O)N3Cc4cc(C(F)(F)F)ccc4[C@@H]3C)ccc2C(=O)N1[C@@H]1CCC(=O)NC1=O` [Compound 37, (R)-3-((R)-3-methyl-5-((S)-1-methyl-5-(trifluoromethyl)isoindoline-2-carbonyl)-1-oxoisoindolin-2-yl)piperidine-2,6-dione], with 6.5 nM.
`C[C@H]1c2ccc(C(F)(F)F)cc2CN1C(=O)c1ccc2c(c1)CN(C1CCC(=O)NC1=O)C2=O` (stereo partly drawn) [Compound 38, 3-(5-((S)-1-methyl-5-(trifluoromethyl)isoindoline-2-carbonyl)-1-oxoisoindolin-2-yl)piperidine-2,6-dione]: half-maximal degradation (DC50) was put at 7.6 nM.
